According to patent US20040102422A1, “Cancer therapy” (The University of Bristol, priority 2001, published 2004):

Legend:
[1] = test system: HeLa cells; experiment: Apoptosis of HeLa cells transiently transfected with pWEB-E2 (HPV 16 E2) or empty pWEB, scored by GFP and Hoechst stain; type: cell-based
Experimental: (§1) In all of the following experiments, HeLa cells were maintained in Minimal Essential Medium (MEM: Sigma) supplemented with 10% Foetal Bovine Serum (FBS: Sigma) and penicillin (100,000 U/litre) and streptomycin (100 mg/litre) at 37° C. in 5% CO2. In some cases, supplements (all obtained from Sigma, with the exception of 3-hydroxytamoxifen which was obtained from Research Biochemicals International (RBI)) were added to the media at the concentrations specifically indicated for each separate experiment.
Prior to transient transfection, cells were seeded at 3×10^5 cells per well onto coverslips in 6 well plates and incubated overnight to obtain a sub-confluent culture. The liposome based reagent Tfx-20 (Promega) was used at a 3:1 liposome:DNA ratio in 1 ml serum-free media per transfection, according to the manufacturer's instructions. After 30 hours, the coverslips were washed in phosphate buffered saline (PBS) and the cells fixed in 4% paraformaldehyde/PBS at 22° C. for 30 minutes. Following further washes in PBS, the cells were stained with bisbenzimide (Hoechst No. 33258: Sigma) for 30 minutes. Finally the coverslips were washed in PBS and mounted onto microscope slides in 10 μl MOWIOL (Calbiochem).
Where used, fluorescence microscopy was carried out using a Leica DM IRBE inverted epi-fluorescent microscope with FITC and DAPI filter sets and a 20× air objective (Leica).
The plasmid pWEB-E2 expresses the HPV 16 E2 protein (Webster, K. et al., (2000) supra). Increasing amounts of pWEB-E2 and the empty pWEB vector were transiently transfected into HeLa cells, an HPV 18-transformed cell cervical carcinoma cell line, along with a plasmid (pCMX-GFP3- supplied by Dr Jeremy Tavaré of the Department of Biochemistry, University of Bristol, UK) that expresses the green fluorescent protein (GFP). After 30 hours the cells were fixed and then stained with bisbenzimide (Hoechst stain). Individual cells were scored as untransfected or transfected on the basis of GFP expression and then examined for chromatin condensation and membrane blebbing using Hoechst stain and GFP, respectively (Webster, K. et al., (2000) spra). 100 transfected cells were counted and the experiment was repeated four times.

[2] = test system: HeLa cells; experiment: MTT assay of HeLa cell viability / proliferation; type: cell-based; conditions: for cell proliferation (number of viable cells, MTT): HeLa cultured in media containing the single agent, read at 24 hour intervals, FIG. 1(d), 1(e)
Experimental: as §1
Where MTT assays were carried out, this involved removal of the media, followed by incubation of the cells in 50 μg/ml MTT (3-(4,5 dimethylthiazol 2-yl) 2,5 diphenyl tetrazolium bromide) for 2 hours at 37° C. The blue formazan crystals were extracted and dissolved in DMSO (dimethylsulfoxide), and the absorbance measured at 560 nm wavelength using an ELISA plate reader (Mosmann, T. (1983) Journal of Immunological Methods 65, 55-631983).
To examine the effects of RU486 and progesterone on cell proliferation, HeLa cells were cultured in media containing RU486 and/or progesterone and at 24 hour intervals the number of viable cells was determined using MTT assays (Mosmann, T. (1983) supra). […] The presence of RU486 has little effect on cell proliferation (FIG. 1(e)).

## CC/C(=C(/c1ccc(OCCN(C)C)cc1)c1cccc(O)c1)c1ccccc1 [3-OHT, 3-hydroxytamoxifen]
[1]; empty vector pWEB, presence of estrogen and 3-OHT, FIG. 2(c)
  percentage of apoptotic cells in the pWEB-transfected population: around 5%
[1]; pWEB-E2 transfected HeLa, 400 nM estrogen plus 400 nM 3-OHT, FIG. 2(c)
  percentage of apoptotic cells: around 10%
[2]; 3-OHT alone or 3-OHT with estrogen, over time, FIG. 2(e), 2(f)
  proliferation of HeLa cells (MTT): no effect

## CC(=O)[C@H]1CC[C@H]2[C@@H]3CCC4=CC(=O)CC[C@]4(C)[C@H]3CC[C@]12C [progesterone]
[1]; HeLa cultured in 2 μM progesterone for one week prior to transfection with pWEB-E2, FIG. 1(b)
  levels of E2-induced apoptosis: significant increase
[1]; HeLa cultured in 2 μM progesterone one week before transfection and incubated in 2 μM progesterone, no RU486, FIG. 1(c)
  level of apoptosis in E2 expression plasmid transfected population: high levels of apoptosis
[1]; HeLa cultured in progesterone for one week prior to transfection with pWEB, FIG. 1(b)
  level of apoptosis in cells transfected with the empty pWEB vector: around 7%
[2]
  cell proliferation (number of viable cells, MTT): decrease in cell proliferation

## C[C@]12CC[C@@H]3c4ccc(O)cc4CC[C@H]3[C@@H]1C[C@@H](O)C2=O [16α-hydroxyestrone]
[1]; pWEB-E2 transfected HeLa incubated 24 hours in media with various concentrations of the hormone, FIG. 2(a), 2(b)
  level of E2-induced apoptosis: increases the level of E2-induced apoptosis

## CC#C[C@]1(O)CC[C@H]2[C@@H]3CCC4=CC(=O)CCC4=C3[C@@H](c3ccc(N(C)C)cc3)C[C@@]21C [RU486, Mifepristone]
[1]; 2 μM progesterone plus 100 nM and 200 nM RU486, compared with 50 nM RU486, FIG. 1(c)
  levels of apoptosis: raised compared to those at 50 nM RU486
[1]; pWEB-E2 transfected HeLa, 2 μM progesterone plus 50 nM RU486, FIG. 1(c)
  level of E2-induced apoptosis: reduced almost to the background levels
[1]; progesterone plus 200 nM RU486, FIG. 1(c)
  level of apoptosis in the untransfected cells: slight increase
[2]
  cell proliferation (number of viable cells, MTT): little effect
